Entries after “also recorded” stand apart in the source; their conditions may differ.
Tests used:
Format in all cases: cell-based, human
[1] = test system: peptide-pulsed C1R-A11 cells; assay: IFN-gamma ELISPOT assay of peptide-induced CTLs (HLA-A*1101); conditions: CTLs induced from HLA-A*1101-positive donors, peptide-pulsed C1R-A11 vs control
Excerpt: (§1) Monocyte-derived dendritic cells (DCs) were used as the antigen-presenting cell to induce a cytotoxic T lymphocyte (CTL) response against peptides presented on human leukocyte antigens (HLAs). As described in the other sections, DCs were generated in vitro (Nakahara S et al., Cancer Res 2003, 63(14): 4112-8). Specifically, peripheral-blood mononuclear cells isolated from healthy volunteers (HLA-A*1101-positive) with the Ficoll-Paque plus solution (Pharmacia) were separated by attaching to plastic tissue culture dishes (Becton Dickinson) and concentrated as a monocyte fraction. The monocyte-concentrated population was cultured in the presence of 1000 IU/ml granulocyte macrophage colony-stimulating factor (R&D System) and 1000 IU/ml interleukin(IL)-4 (R&D System) in an AIM-V medium (Invitrogen) containing 2% heat-inactivated autologous serum (AS). After seven days of culturing, the cytokine-induced DCs were pulsed with 20 micro-g/ml each of the synthesized peptides in an AIM-V medium at 37 degrees C. for three hours in the presence of 3 micro-g/ml beta 2-microglobulin. The generated cells appeared to express on their cell surface DC-associated molecules such as CD80, CD83, CD86 and HLA class II (data not shown). Next, these peptide-pulsed DCs were inactivated by X-ray irradiation (20 Gy), and mixed in a 1:20 ratio with autologous CD8^+ T cells obtained by positive selection using the CD8 Positive Isolation Kit (Dynal). These culture products were seeded in a 48-well plate (Corning). Each well was made to contain 1.5×10^4 peptide-pulsed DCs, 3×10^5 CD8^+ T cells and 10 ng/ml IL-7 (R&D System) in 0.5 ml of the AIM-V/2% AS medium. Three days later, these culture products were added with a final concentration of 20 IU/ml IL-2 (CHIRON). On day 7 and day 14, T cells were further stimulated with peptide-pulsed autologous DCs. The DCs were prepared every time by the same method as above. On day 21, after the third peptide stimulation, CTLs were examined against the peptide-pulsed C1R-A11 cells by a human interferon (IFN)-gamma enzyme-linked immunospot (ELISPOT) assay (Tanaka H et al., Br J Cancer 2001, 84(1): 94-9; Umano Y et al., Br J Cancer 2001, 84(8): 1052-7; Uchida N et al., Clin Cancer Res 2004, 10(24): 8577-86; Suda T et al., Cancer Sci 2006, 97(5): 411-9; Watanabe T et al., Cancer Sci 2005, 96(8): 498-506).
(§2) Specifically, peptide-pulsed C1R-A11 (1×10^4 cells/well) was prepared as the stimulator cell. The induced CTLs, i.e., CTL lines and CTL clones, were used as the responder cell. The IFN-gamma ELISPOT assay and IFN-gamma ELISA were performed according to the manufacturer's manual.

peptide-pulsed C1R-A11 = assay: IFN-gamma ELISA of CTL lines and CTL clones (HLA-A*1101); conditions: for IFN-gamma production of CTL lines: peptide-pulsed vs non-pulsed target cells, HLA-A*1101; for IFN-gamma production of CTL clones: CTL clones by limiting dilution
Procedure: (§3) CTLs were propagated in culture using methods similar to those disclosed by Riddell et al. (Walter E A et al., N Engl J Med 1995, 333(16): 1038-44; Riddell S R et al., Nat Med 1996, 2(2): 216-23). The CTLs were co-cultured in a total of 25 ml AIM-V medium containing 5% AS (AIM-V/5% AS) and 40 ng/ml anti-CD3 antibody with two types of Mitomycin C-treated human B lymphoblastoid cell lines at 5×10^6 cells/flask. One day after beginning of the culturing, 120 IU/ml IL-2 was added to the culture. On days 5, 8 and 11, a fresh AIM-V/5% AS medium containing 30 IU/ml IL-2 was added to the culture (Tanaka H et al., Br J Cancer 2001, 84(1): 94-9; Umano Y et al., Br J Cancer 2001, 84(8): 1052-7; Uchida N et al., Clin Cancer Res 2004, 10(24): 8577-86; Suda T et al., Cancer Sci 2006, 97(5): 411-9; Watanabe T et al., Cancer Sci 2005, 96(8): 498-506).
(§4) Dilution of CTLs was carried out to make 0.3, 1 and 3 cells/well in 96 round-bottomed microtiter plates (Nalge Nunc International). The CTLs were co-cultured with two types of Mitomycin C-treated human B lymphoblastoid cell lines at 1×10^4 cells/well in a total of 150 micro-l/well AIM-V/5% AS medium with 30 ng/ml anti-CD3 antibody and 125 IU/ml IL-2. Ten days later, IL-2 was added to the medium at 50 micro-l/well to reach a final concentration of 125 IU/ml. On day 14, the CTL activity was tested, and the CTL clones were propagated using the same method as described above (Uchida N et al., Clin Cancer Res 2004, 10(24): 8577-86; Suda T et al., Cancer Sci 2006, 97(5): 411-9; Watanabe T et al., Cancer Sci 2005, 96(8): 498-506).
as §2

peptide-pulsed C1R-A33 = assay: IFN-gamma ELISA of CTL lines and CTL clones (HLA-A*3303); conditions: CTL lines, peptide-pulsed vs non-pulsed target cells, HLA-A*3303
Procedure: as §3, §4
(§5) Specifically, peptide-pulsed C1R-A33 (1×10^4 cells/well) was prepared as the stimulator cell. The induced CTLs, i.e., CTL lines and CTL clones, were used as the responder cell. The IFN-gamma ELISPOT assay and IFN-gamma ELISA were performed according to the manufacturer's manual.

[2] = test system: peptide-pulsed C1R-A33 cells; assay: IFN-gamma ELISPOT assay of peptide-induced CTLs (HLA-A*3303); conditions: CTLs induced from HLA-A*3303-positive donors, peptide-pulsed C1R-A33 vs control
Excerpt: as §1, with “(HLA-A*3303-positive)” for “(HLA-A*1101-positive)”, “CIR-A33 cell” for “C1R-A11 cells”
as §5

Question: Which “peptide-specific CTL activity (IFN-gamma production)” value (from here on “peptide-specific CTL activity”) ([1]; listed as CDCA1-A11-9-439) does the source give for “KAAEDSYAK (a peptide derived from CDCA1) [SEQ ID NO: 9]” here?
Answer: potent IFN-gamma production; also recorded: significant specific CTL activity

Question: What about the “IFN-gamma production of CTL lines” value (peptide-pulsed C1R-A11) of the same sequence?
Answer: potent IFN-gamma production

Question: How did the “peptide-specific CTL activity” value ([1]; listed as CDCA1-A1-10-358) turn out when “KINKKHEDVK (a peptide derived from CDCA1) [SEQ ID NO: 58]” was run?
Answer: potent IFN-gamma production

Question: And the “peptide-specific CTL activity” value ([1]; listed as CDCA1-A11-10-358)?
Answer: significant specific CTL activity

Question: What about the “peptide-specific CTL activity” value ([1]; listed as CDCA1A11-10-358) of the same sequence?
Answer: potent IFN-gamma production

Question: What about the “IFN-gamma production of CTL lines” value (peptide-pulsed C1R-A11) of the same sequence?
Answer: potent IFN-gamma production

Question: Which results are given for “NVAEIVIHIR (a peptide derived from CDCA1) [SEQ ID NO: 67]”?
Answer: IFN-gamma production of CTL lines (peptide-pulsed C1R-A33): potent IFN-gamma production; peptide-specific CTL activity (IFN-gamma production) [2]: potent IFN-gamma production

Question: With “DTVQKLKNAR (a peptide derived from CDCA1) [SEQ ID NO: 69]” as the sequence, how does the “IFN-gamma production of CTL lines” value (peptide-pulsed C1R-A33) read?
Answer: potent IFN-gamma production

Question: And the “peptide-specific CTL activity” value [2]?
Answer: potent IFN-gamma production

Question: With “DILCPKAKR (a peptide derived from CDCA1) [SEQ ID NO: 60]” as the sequence, how does the “peptide-specific CTL activity” value [2] read?
Answer: potent IFN-gamma production

Question: Which “peptide-specific CTL activity” value ([1]; listed as CDCA1-A11-9-419) does the source give for “SQEIFLNLK (a peptide derived from CDCA1) [SEQ ID NO: 6]” here?
Answer: potent IFN-gamma production; also recorded: significant specific CTL activity

Question: And the “IFN-gamma production of CTL clones” value (peptide-pulsed C1R-A11; peptide-pulsed C1R-A11, listed as CDCA1-A11-9-419)?
Answer: Potent IFN-gamma production

Question: And the “IFN-gamma production of CTL lines” value (peptide-pulsed C1R-A11)?
Answer: potent IFN-gamma production

Question: Which results are given for “GADGKNLTK (a peptide derived from CDCA1) [SEQ ID NO: 21]”?
Answer: peptide-specific CTL activity (IFN-gamma production) ([1]; listed as CDCA1-A11-9-25): potent IFN-gamma production; also recorded: significant specific CTL activity; IFN-gamma production of CTL lines (peptide-pulsed C1R-A11): potent IFN-gamma production

Question: “AAHQEALMK (a peptide derived from CDCA1) [SEQ ID NO: 13]” was tested. Which “peptide-specific CTL activity” value ([1]; listed as CDCA1-A1-9-157) did it give?
Answer: potent IFN-gamma production

Question: What about the “peptide-specific CTL activity” value ([1]; listed as CDCA1-A11-9-157) of the same sequence?
Answer: potent IFN-gamma production; also recorded: significant specific CTL activity

Question: And the “IFN-gamma production of CTL lines” value (peptide-pulsed C1R-A11)?
Answer: potent IFN-gamma production

Question: How did the “peptide-specific CTL activity” value ([1]; listed as CDCA1-A11-10-339) turn out when “NSFKRLMIVK (a peptide derived from CDCA1) [SEQ ID NO: 30]” was run?
Answer: potent IFN-gamma production; also recorded: significant specific CTL activity

Question: And the “IFN-gamma production of CTL lines” value (peptide-pulsed C1R-A11)?
Answer: potent IFN-gamma production

Question: For “TVQKLKNAR (a peptide derived from CDCA1) [SEQ ID NO: 28]”, which “peptide-specific CTL activity” value [2] is on record?
Answer: potent IFN-gamma production

Question: For “SGIINFIHFR (a peptide derived from CDCA1) [SEQ ID NO: 68]”, which “peptide-specific CTL activity” value ([2]; listed as CDCA1-A33-10-122) is on record?
Answer: no specific IFN-gamma production; also recorded: specific IFN-gamma production was not observed

Question: “ETADILCPK (a peptide derived from CDCA1) [SEQ ID NO: 5]” was tested. Which “peptide-specific CTL activity” value ([1]; listed as CDCA1-A11-9-105) did it give?
Answer: potent IFN-gamma production; also recorded: significant specific CTL activity

Question: What about the “IFN-gamma production of CTL clones” value (peptide-pulsed C1R-A11; peptide-pulsed C1R-A11, listed as CDCA1-A11-9-105) of the same sequence?
Answer: Potent IFN-gamma production

Question: And the “IFN-gamma production of CTL lines” value (peptide-pulsed C1R-A11)?
Answer: potent IFN-gamma production

Question: What about the “peptide-specific CTL activity” value [2] of the same sequence?
Answer: potent IFN-gamma production
